Measurements taken from article PMC11480954, “Molecular determinants of resurgent sodium currents mediated by Navβ4 peptide and A-type FHFs” (Frontiers in Molecular Neuroscience, 2024).
Values joined by “and” are separate entries in the source; they are usually repeats but may differ in a detail not shown here. Equal entries are not always repeated. Where two headings read alike, the source gives them in different places. No end group written: not given here.

Experiments:
Nav1.7 N395K = conditions: ref Sheets et al., 2007; cited from earlier work
Text: The receptor site of local anesthetics is formed by multiple residues within DIS6, DIIIS6 and DIVS6. […] Several studies have implicated F1764 and Y1771 in Nav1.2 (corresponding to F1737 and Y1744 in Nav1.7) as playing a major effect on local anesthetics-induced inhibition of VGSCs ([Ragsdale et al., 1996]). We recently reported that mutation of an asp ...

[1] = target: T1, human Nav1.7 R1599P (rpNav1.7) (Homo sapiens, UniProt Q15858, R1610P); experiment: Gating properties (steady-state activation, inactivation, INaP), rpNav1.7; format: cell-based
T1 construct: expressed in transfected cells; host or cells: HEK293 cells, transient transfection with pcDNA3.1 construct
T1 sequence (Q15858 1-1977 isoform Q15858-3 R1599P): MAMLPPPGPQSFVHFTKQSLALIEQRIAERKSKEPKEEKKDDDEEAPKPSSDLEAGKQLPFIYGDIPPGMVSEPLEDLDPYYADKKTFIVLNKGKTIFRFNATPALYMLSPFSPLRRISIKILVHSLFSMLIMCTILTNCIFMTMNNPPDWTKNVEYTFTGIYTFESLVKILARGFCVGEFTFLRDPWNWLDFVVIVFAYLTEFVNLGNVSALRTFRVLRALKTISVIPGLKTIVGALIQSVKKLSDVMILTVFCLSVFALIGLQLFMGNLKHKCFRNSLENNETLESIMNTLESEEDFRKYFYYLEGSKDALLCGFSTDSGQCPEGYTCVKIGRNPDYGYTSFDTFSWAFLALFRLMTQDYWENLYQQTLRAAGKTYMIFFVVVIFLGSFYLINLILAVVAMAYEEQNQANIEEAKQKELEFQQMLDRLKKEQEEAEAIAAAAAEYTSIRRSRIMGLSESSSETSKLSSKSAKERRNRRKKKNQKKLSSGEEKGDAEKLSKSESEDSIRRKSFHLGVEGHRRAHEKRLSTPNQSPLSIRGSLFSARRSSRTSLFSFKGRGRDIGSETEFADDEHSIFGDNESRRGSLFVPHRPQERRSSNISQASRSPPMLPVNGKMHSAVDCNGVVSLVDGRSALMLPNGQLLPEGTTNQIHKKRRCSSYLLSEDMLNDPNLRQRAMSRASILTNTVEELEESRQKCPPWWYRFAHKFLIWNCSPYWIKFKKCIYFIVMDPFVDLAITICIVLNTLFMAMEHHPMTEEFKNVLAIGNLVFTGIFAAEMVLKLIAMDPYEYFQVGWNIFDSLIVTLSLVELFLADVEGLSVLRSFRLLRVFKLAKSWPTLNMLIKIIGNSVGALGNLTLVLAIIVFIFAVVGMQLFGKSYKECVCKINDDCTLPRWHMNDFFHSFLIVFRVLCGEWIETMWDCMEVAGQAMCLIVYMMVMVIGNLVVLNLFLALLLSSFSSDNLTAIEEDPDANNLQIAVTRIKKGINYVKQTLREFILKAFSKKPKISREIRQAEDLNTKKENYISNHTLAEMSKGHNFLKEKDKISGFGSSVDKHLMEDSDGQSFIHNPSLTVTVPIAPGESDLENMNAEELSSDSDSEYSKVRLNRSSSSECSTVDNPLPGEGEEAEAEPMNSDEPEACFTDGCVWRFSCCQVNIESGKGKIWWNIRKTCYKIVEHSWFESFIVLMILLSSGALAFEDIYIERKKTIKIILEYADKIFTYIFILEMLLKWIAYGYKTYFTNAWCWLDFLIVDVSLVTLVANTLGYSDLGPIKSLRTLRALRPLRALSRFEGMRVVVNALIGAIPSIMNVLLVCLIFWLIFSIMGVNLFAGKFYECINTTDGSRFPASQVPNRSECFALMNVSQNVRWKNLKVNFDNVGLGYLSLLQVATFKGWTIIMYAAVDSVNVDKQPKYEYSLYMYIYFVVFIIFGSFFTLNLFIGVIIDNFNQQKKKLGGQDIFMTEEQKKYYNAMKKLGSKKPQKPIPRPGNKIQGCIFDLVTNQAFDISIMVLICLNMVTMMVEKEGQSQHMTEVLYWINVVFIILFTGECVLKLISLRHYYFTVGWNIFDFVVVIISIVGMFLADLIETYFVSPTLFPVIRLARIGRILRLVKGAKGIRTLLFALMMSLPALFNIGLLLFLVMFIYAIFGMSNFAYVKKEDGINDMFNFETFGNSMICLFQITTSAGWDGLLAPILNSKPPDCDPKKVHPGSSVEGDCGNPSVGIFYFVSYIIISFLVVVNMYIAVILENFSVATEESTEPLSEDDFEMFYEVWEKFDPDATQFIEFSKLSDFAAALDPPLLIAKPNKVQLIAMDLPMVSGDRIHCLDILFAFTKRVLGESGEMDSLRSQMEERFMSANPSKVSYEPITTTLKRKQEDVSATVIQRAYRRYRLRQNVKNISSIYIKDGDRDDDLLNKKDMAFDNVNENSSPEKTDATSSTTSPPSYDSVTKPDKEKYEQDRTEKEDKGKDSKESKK
T1 sequence (Q07699 19-218 partner): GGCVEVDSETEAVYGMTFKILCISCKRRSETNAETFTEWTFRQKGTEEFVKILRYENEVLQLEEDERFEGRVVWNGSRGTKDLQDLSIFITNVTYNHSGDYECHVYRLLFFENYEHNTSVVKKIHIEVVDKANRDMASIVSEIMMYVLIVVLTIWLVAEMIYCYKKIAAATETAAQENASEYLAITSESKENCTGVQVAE
T1 sequence (O60939 30-215 partner): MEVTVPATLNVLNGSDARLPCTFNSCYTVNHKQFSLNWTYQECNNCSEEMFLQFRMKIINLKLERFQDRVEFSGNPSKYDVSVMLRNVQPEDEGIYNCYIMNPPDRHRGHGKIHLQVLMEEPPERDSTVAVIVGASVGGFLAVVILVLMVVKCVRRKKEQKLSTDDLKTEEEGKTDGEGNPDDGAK
Experimental: (§1) HEK293 cells and ND7/23 cells were grown under standard tissue culture conditions (5% CO2 and 37°C) in DMEM supplemented with 10% FBS, 1% penicillin and 1% streptomycin. Using Invitrogen Lipofectamine 2000, human Nav1.7 R1599P (rpNav1.7) and the mutant constructs were transiently co-transfected with Navβ1 and Navβ2 into HEK293 cells. The constructs human Nav1.8 and mutants were transiently co-transfected with FHF2B or FHF4A into ND7/23 cells. The lipofectamine-DNA mixture was added to the cell culture medium and left for 3 h after which the cells were washed with fresh medium. Cells with green fluorescent protein fluorescence were selected for whole-cell patch-clamp recordings 36–72 h after transfection.
(§2) Whole-cell voltage-clamp recordings were performed at room temperature (~21°C) using an EPC-10 amplifier and the Pulse program (HEKA Electronics). Fire-polished electrodes (0.7–1.0 MΩ) were fabricated from 1.7 mm capillary glass using a P-97 puller (Sutter Instruments), and the tips were coated with sticky wax (KerrLab) to reduce electrode capacitance and enable increased series resistance compensation. The pipette solution contained (in mM) 140 CsF, 1.1 EGTA, 10 NaCl, and 10 HEPES, pH 7.3. The bathing solution was (in mM) 130 mM NaCl, 30 mM TEA chloride, 1 mM MgCl2, 3 mM KCl, 1 mM CaCl2, 10 mM HEPES, and 10 mM d-glucose, pH 7.3 (adjusted with NaOH). […] The offset potential was zeroed before contacting the cell. After establishing the whole-cell recording configuration, the resting potential was held at −120 or −100 mV for 5 min to allow adequate equilibration between the micropipette solution and the cell interior. […]
(§3) Families of sodium currents were induced by 50-ms depolarizing steps to various potentials ranging from −120 (or −100) to +40 mV in 5-mV increments. The conductance was calculated using the equation G(Nav) = I/(V - Vrev) in which I, V, and Vrev represent inward current value, membrane potential, and reversal potential, respectively. […]

[2] = target: T1, human Nav1.7 R1599P (rpNav1.7); experiment: Resurgent current (INaR), whole-cell patch clamp, rpNav1.7; format: cell-based
Experimental: as §1, §2
(§4) INaR: INaR was elicited by repolarizing voltage steps from +20 to −80 mV for 100 ms (or 200 ms) in −5 mV increments, following a 20-ms depolarizing potential of +30 mV. […] The relative INaR in Nav1.7 and Nav1.8 was calculated by normalizing to the peak transient current elicited at −10 or 0 mV.

[3] = target: T1, human Nav1.7 R1599P (rpNav1.7); experiment: Long-term inactivation of rpNav1.7; format: cell-based; conditions: rpNav1.7, HEK293; 1 mM; six 16-ms pulses of −10 mV from −100 mV, 40-ms interpulse; scramble n = 6, FHF4A peptide n = 5; p < 0.0001
human Nav1.8 [4] = experiment: Gating properties (steady-state activation, inactivation, INaP), Nav1.8; format: cell-based; conditions: Nav1.8 + FHF2B, ND7/23; 1 mM; held at −100 mV; scramble n = 8, FHF4A peptide n = 10; p > 0.05
Experimental: as §1
(§5) Whole-cell voltage-clamp recordings were performed at room temperature (~21°C) using an EPC-10 amplifier and the Pulse program (HEKA Electronics). Fire-polished electrodes (0.7–1.0 MΩ) were fabricated from 1.7 mm capillary glass using a P-97 puller (Sutter Instruments), and the tips were coated with sticky wax (KerrLab) to reduce electrode capacitance and enable increased series resistance compensation. The pipette solution contained (in mM) 140 CsF, 1.1 EGTA, 10 NaCl, and 10 HEPES, pH 7.3. The bathing solution was (in mM) 130 mM NaCl, 30 mM TEA chloride, 1 mM MgCl2, 3 mM KCl, 1 mM CaCl2, 10 mM HEPES, and 10 mM d-glucose, pH 7.3 (adjusted with NaOH). […] The offset potential was zeroed before contacting the cell. After establishing the whole-cell recording configuration, the resting potential was held at −120 or −100 mV for 5 min to allow adequate equilibration between the micropipette solution and the cell interior. Linear leak subtraction, based on resistance estimates from four to five hyperpolarizing pulses applied before the depolarizing test potential, was used for all voltage clamp recordings. Membrane currents were usually filtered at 5 kHz and sampled at 20 kHz. […] Voltage errors were minimized using 80–95% series resistance compensation, and the capacitance artifact was canceled using the computer-controlled circuitry of the patch clamp amplifier. […] The concentration-dependent curves were fitted to a hill equation: Y = Bottom + (Top-Bottom)/(1 + 10^((LogEC50-X)*HillSlope)).
Families of sodium currents were induced by 50-ms depolarizing steps to various potentials ranging from −120 (or −100) to +40 mV in 5-mV increments. The conductance was calculated using the equation G(Nav) = I/(V - Vrev) in which I, V, and Vrev represent inward current value, membrane potential, and reversal potential, respectively.
Voltage dependence of steady-state inactivation was estimated using a standard double pulse protocol in which sodium currents were induced by a 50-ms depolarizing potential of 0 mV following a 500-ms prepulse at potentials that ranged from −150 to +10 mV with a 10-mV increment. Currents were plotted as a fraction of the maximum peak current. To obtain the midpoint voltages (V1/2) and slope factor (k), the curves of both steady-state activation and inactivation were fitted to a Boltzmann function.

human Nav1.8 [5] = experiment: INaR, Nav1.8 co-expressed with FHF2B; format: cell-based; conditions: Nav1.8 + FHF2B, ND7/23, 1 mM
Experimental: as §1, §5, §4

human Nav1.7 = experiment: Steady-state activation and inactivation, WT Nav1.7; format: cell-based; conditions: HEK293, 100 μM intracellular, mean ± S.E., scramble n = 6, Navβ4 peptide n = 8
Experimental: as §1
Whole-cell voltage-clamp recordings were performed at room temperature (~21°C) using an EPC-10 amplifier and the Pulse program (HEKA Electronics). […]
as §3

Purkinje neurons = conditions: ref White et al., 2019, cited from earlier work
Text: Next, we investigated if FHF4A, another INaR mediator reported recently ([White et al., 2019]; [Xiao et al., 2022]), shares the receptor site in VGSCs with Navβ4 peptide.

VGSC α-subunits = conditions: heterologous co-expression with VGSC α-subunits; no reference given; cited from earlier work
Text: FHF4A could still induce INaR from the F1710K channel (Figure 10A), but the average INaR amplitude at −20 mV is only 2.0% ± 0.2% of the peak transient current, which is less than one-half of the value from WT Nav1.8 (p < 0.0001). ... || The role of Navβ4 in INaR generation remains controversial. […] [Bant and Raman (2010)] reported that siRNA induced knock-down of Navβ4 reduced INaR generation in cultured cerebellar granular neurons by roughly 60%. […] Furthermore, Scn4b knock-out in mice has produced variable effects on INaR. In striatal neurons, Scn4b kno ...

For CCN(CC)CC(=O)Nc1c(C)cccc1C [lidocaine], the “effect of N395K on lidocaine inhibition of Nav1.7” value (Nav1.7 N395K) is given as “attenuates the inhibitory effects of lidocaine on Nav1.7”.

With “KAREAQRASRAIEQLRSAKI [scrambled peptide, scrambled control peptide]” the “Inactivation (V1/2), rpNav1.7” value ([1]; HEK293, 100 μM intracellular, mean ± S.E., scramble n = 5, Navβ4 peptide n = 9, p < 0.05) was −75.0 ± 1.5 mV, the “Activation (V1/2), rpNav1.7” value ([1]; HEK293, 100 μM intracellular, mean ± S.E., scramble n = 6, Navβ4 peptide n = 9, p < 0.01) was −27.0 ± 1.9 mV and the “INaR elicited with scrambled peptide” value ([2]; Nav1.7 and rpNav1.7 (Figures 1A,B), HEK293, 100 μM intracellular) was “no INaR was elicited”. The “fraction of the current elicited at the 6th pulse” value [3] was 0.87 ± 0.08, the “V1/2 (activation), Nav1.8, Figure 6” value (human Nav1.8 [4]) was −10.0 ± 2.4 mV and the “V1/2 (inactivation), Nav1.8, Figure 6” value (human Nav1.8 [4]) was −44.5 ± 2.1 mV. For the same molecule, the “INaR with scrambled peptide, Nav1.8” value (human Nav1.8 [5]) was “failed to produce INaR”, the “V1/2(activation), WT Nav1.7” value (human Nav1.7; p < 0.01) was −29.3 ± 1.6 mV and the “V1/2(inactivation), WT Nav1.7” value (human Nav1.7; p < 0.05) was −79.7 ± 1.7 mV.

With KKLITFILKKTREK [Navβ4 peptide] the “INaP, rpNav1.7” value ([1]; end of 50-ms pulse of −10 mV, normalized to peak transient current, 100 μM Navβ4 peptide, n = 9) was 7.1% ± 3.0% and 7.1 ± 3.0 (9) %, the “average INaR amplitude elicited at −30 mV” value ([2]; rpNav1.7 + Navβ1 + Navβ2, HEK293, 100 μM peptide intracellular, measured after 3.0 ms into repolarization, ~21°C, mean ± S.E., n = 14) was 15.7% ± 1.1% and the EC50 ([2]; rpNav1.7, HEK293, Hill equation, peptide in intracellular solution (10 μM – 1 mM), each data point from 3 to 14 cells, read-out: EC50 for INaR generation) was 61.8 ± 1.3 µM.

For “peptide derived from the sequence FHF4A K50 – R63: a peptide derived from the sequence FHF4A K50 – R63 (KVRIFGLKKRRLRR; FHF4A; UniProt Q92915 50-63, looked up, fragment)”, the “INaR in Purkinje neurons” value (Purkinje neurons) is given as “INaR was also reconstituted in Purkinje neurons” and the “INaR in Purkinje neurons” value (Purkinje neurons; listed as short peptide derived from this segment) is given as “induce robust Nav1.6 INaR in Purkinje neurons”.

For “substitution of the 7^th residue leucine with serine: FHF4A K50 – R63 peptide with substitution of the 7th residue leucine with serine (KVRIFGSKKRRLRR; FHF4A peptide K50-R63; UniProt Q92915 50-63, looked up, variant L56S)”, the “INaR in Purkinje neurons” value (Purkinje neurons) is given as “no longer induce INaR”.

B1: full-length Navβ4: full-length Navβ4 sodium channel auxiliary subunit (protein, UniProt Q8IWT1 1-228, looked up)
chain: MPGAGDGGKAPARWLGTGLLGLFLLPVTLSLEVSVGKATDIYAVNGTEILLPCTFSSCFGFEDLHFRWTYNSSDAFKILIEGTVKNEKSDPKVTLKDDDRITLVGSTKEKMNNISIVLRDLEFSDTGKYTCHVKNPKENNLQHHATIFLQVVDRLEEVDNTVTLIILAVVGGVIGLLILILLIKKLIIFILKKTREKKKECLVSSSGNDNTENGLPGSKAEEKPPSKV
modifications: full-length
notes: full-length Navβ4 sodium channel auxiliary subunit
For B1, the “INaR with full-length Navβ4” value (VGSC α-subunits) is listed as “fails to reconstitute INaR in heterologous systems”.
